This is an account of results in patent US20010051630A1, “Use of hydroxylamine derivatives, and method and preparations for increasing the tolerance of field crops against weather stresses” (priority 1997, published 2001).

In one assay the test system is Mo 17 inbred maize line. In words: CSVT (Complex Stressing Vigour Test), seeds soaked in active agent, Mo 17 maize. Format: in vivo. As to conditions: seeds soaked in 10 mg/l active agent, * = significant vs control P < 0.05. As for the experimental part:
(§1) In this experiment the tolerance of maize, soybean and pepper seeds treated with the active agent against cold was tested. This test imposed temperature and oxygen deficiency stresses on the seeds and was carried out according to Barla-Szabó and Dolinka CSVT (Complex Stressing Vigour Test). For a single test, two hundred seeds were soaked for 48 hours at 25° C. and another 48 hours at 5° C in 150 ml distilled water containing the active agent in 10 mg/l concentration. Following the 96 hours of soaking, the seeds were further germinated between rolled wet paper for 96 hours at 25° C. There were 25 seeds in each roll, the rolls were placed vertically into containers and covered with a plastic bag in order to reduce evaporation. During the whole procedure the seeds were kept in darkness. At the end of the experiment the number of normally developing and ungerminated seeds were recorded. The length of the normal seedlings was measured and the average length of the five longest seedlings was calculated. Seedlings longer than 0.33 times the average length of the five longest seedlings were considered to be of high vigour, and low vigour seedlings were shorter than this length.

Another assay has as its system HMv09 inbred maize line. Description: CSVT, seeds soaked in active agent, HMv09 maize. Format: in vivo. The note with it: seeds soaked in 10 mg/l active agent. As for the experimental part:
as §1

In the next assay the test system is McCall soybeans. Description: CSVT, McCall soybeans. The assay is classed as in vivo, soybean. The protocol: as §1, with “darkness.” for “darkness. At the end of the experiment the number of normally developing and ungerminated seeds were recorded. The length of the normal seedlings was measured and the average length of the five longest seedlings was calculated. Seedlings longer than 0.33 times the average length of the five longest seedlings were considered to be of high vigour, and low vigour seedlings were shorter than this length.”
At the end of the experiment the number of normally developing and ungerminated seeds were recorded. The length of the normal seedlings was measured and the average length of the five longest seedlings was calculated. Seedlings longer than 0.33 times the average length of the five longest seedlings were considered to be of high vigour, and low vigour seedlings were shorter than this length.
When applying the CSVT test, the following results were obtained (Table 4.).

The test system of a further assay is Seaway bean cultivar. In words: Drought tolerance of beans, part a (5 days hardening). Format: in vivo. As to conditions: 7 days without water, one week regeneration. From the text: (§2) Based on the experiences of our preliminary experiments, the plants were hardened before the application of the active agent by withholding the water for a few days, until the first signs of withering appeared. Then the plants were watered and the active agent was either dissolved in the water, or sprayed to the plants directly. Afterwards, the plants were subjected to different periods of drought according to the given experiment, watered again, and after a week-long regeneration period, the survival ratio was determined.
a) Seaway bean cultivar was hardened for 5 days by withholding the water. Afterwards the plantlets were watered for two days normally. During this time, a 10 mg/liter and 100 mg/liter concentration solution of the active agent was applied two times a day dissolved in water or by direct spraying. Then the water was withheld for 7 days, and after a week-long regeneration period, the survival ratio was determined.

A further assay has as its system bean plants (cv. Seaway). In words: Drought tolerance of beans, part b (7 days hardening). Format: in vivo. The note with it: 7 days without water, 10 mg/liter and 100 mg/liter solution named, table does not say which.
Description: as §2
b) In this experiment, bean plants (cv. Seaway) were hardened for 7 days instead of the 5 days described in Part a. Then a 10 mg/liter and 100 mg/liter concentration solution of the active agent was applied two times a day for two days. Then 7 days without water followed, and after a week-long regeneration period, the results of the experiment were evaluated.

Assay [1] has as its system soybean cv. Bólyi 44. Description: Drought tolerance of soybeans. Format: in vivo. The note with it: 6 days hardening; 50 mg/liter in the water; 4 days without watering, one week regeneration. The protocol: Soybeans of soybean cv. Bólyi 44 were hardened for 6 days by withholding the water. This was followed by two days of watering, and the active agent was applied in the water. The concentration of the solution of the active agent was 50 mg/liter. After a 4-day-long cease of watering and a one week regeneration period, the number of surviving plants was recorded.
Watering was ceased for 10 days for a certain group of plants in the experiment. It was observed that almost every plant perished. Each of the 4 surviving plants had previously been treated with the active agent.

The next assay relates to bean cv. Seaway. Description: Frost tolerance of beans. The note with it: −2° C. for 8 hours. Format: in vivo. As for the experimental part: Seedlings of bean cv. Seaway were cultivated under normal conditions for the first two weeks, then they were treated with 10 mg/liter and 100 mg/liter concentration solutions of the examined active agents 2 and 1 days before the initiation of the frost tolerance experiments. In the experiment, the plants were kept at −2° C. for 8 hours, then grew under normal conditions for I week, and the survival ratio was determined. 4 trays were used for each experiment and 6 seeds were planted in each tray.

Assay [2] concerns soybean cv. Bólyi 44. Description: Field soybean cultivation, yield. The assay is classed as in vivo. The protocol:
The experiment was performed using soybean cv. Bólyi 44. Before sowing, the seeds were treated with Rhyzobium Japonicum nitrogen-binding bacterium, which forms a root nodule providing 50-70% of the nitrogen demand of the plant.
The examined compounds were applied by pearling the seeds; 1 ml of pearling agent containing 1 mg of active agent in a 5% aqueous PVA solution was used for 100 seeds.
The plants were sown after soil preparation in the autumn, using a crop rotation system, 3-5 cm deep in the ground, with a 45-50 cm row distance, a 5 cm plant distance and 450,000-500,000 plant/ha density. The date of sowing was Apr. 15, 1997. During the development of the plant, the usual cultivation procedures were followed and the usual pesticides were used. The harvest took place in September-October, with the water content of the grains being between 16-18%.

Marks after values point to notes of the source that are not given here.

With `CC(C)(C)NCC(O)CONC(=O)c1cccc(C(F)(F)F)c1.Cl` (stereo not drawn) [Compound 1, N-[2-hydroxy-3-(1,1-dimethylethyl-amino)propoxy]-3-trifluoromethyl-benzamide monohydrochloride], the “Ratio of high vigour plants (%)” value in the assay with Mo 17 inbred maize line is listed as 29* %; in the assay with HMv09 inbred maize line, 49* %; in the assay on McCall soybeans, 43* %. Further, in the assay with Seaway bean cultivar, the “survival (%), Spraying (100 mg/l)” value is on record as 71* %. Also, the “survival (%), Watering (10 mg/l)” value in the assay on Seaway bean cultivar is recorded as 30* %. The “survival (%), Watering (100 mg/l)” value in the assay on Seaway bean cultivar is reported as 41* %. Moreover, the “Survival (%)” value with bean plants (cv. Seaway) is on record as 14* %; with soybean cv. Bólyi 44 [1], 25* %; in the assay on bean cv. Seaway (spraying, 100 mg/l), 40* %; in the assay on bean cv. Seaway (watering, 10 mg/l), 25* %. Also, the “Weight of the crop (kg/m^2)” value with soybean cv. Bólyi 44 [2] (seeds pearled with 1 mg active agent in 1 ml 5% PVA per 100 seeds) was found to be 0.55 kg/m^2. Also, the “Improvement compared to the control (%)” value with soybean cv. Bólyi 44 [2] (weight of the crop) was 22.2%.
